The source of these data is patent US12581252B2, “Substituted pyrrolo[3,4-b]pyridines as PI3K-α inhibitors” (Relay Therapeutics, Inc., priority 2020, dated 2026).

The experiment deals with H1047R PIK3CA enzyme (Homo sapiens, UniProt P42336, H1047R). Briefly: ADP-Glo Biochemical PIK3CA Kinase Assay. (In general: In ADP-Glo the light output rises with the ADP produced.)
Sequence of H1047R PIK3CA enzyme (P42336 whole entry H1047R): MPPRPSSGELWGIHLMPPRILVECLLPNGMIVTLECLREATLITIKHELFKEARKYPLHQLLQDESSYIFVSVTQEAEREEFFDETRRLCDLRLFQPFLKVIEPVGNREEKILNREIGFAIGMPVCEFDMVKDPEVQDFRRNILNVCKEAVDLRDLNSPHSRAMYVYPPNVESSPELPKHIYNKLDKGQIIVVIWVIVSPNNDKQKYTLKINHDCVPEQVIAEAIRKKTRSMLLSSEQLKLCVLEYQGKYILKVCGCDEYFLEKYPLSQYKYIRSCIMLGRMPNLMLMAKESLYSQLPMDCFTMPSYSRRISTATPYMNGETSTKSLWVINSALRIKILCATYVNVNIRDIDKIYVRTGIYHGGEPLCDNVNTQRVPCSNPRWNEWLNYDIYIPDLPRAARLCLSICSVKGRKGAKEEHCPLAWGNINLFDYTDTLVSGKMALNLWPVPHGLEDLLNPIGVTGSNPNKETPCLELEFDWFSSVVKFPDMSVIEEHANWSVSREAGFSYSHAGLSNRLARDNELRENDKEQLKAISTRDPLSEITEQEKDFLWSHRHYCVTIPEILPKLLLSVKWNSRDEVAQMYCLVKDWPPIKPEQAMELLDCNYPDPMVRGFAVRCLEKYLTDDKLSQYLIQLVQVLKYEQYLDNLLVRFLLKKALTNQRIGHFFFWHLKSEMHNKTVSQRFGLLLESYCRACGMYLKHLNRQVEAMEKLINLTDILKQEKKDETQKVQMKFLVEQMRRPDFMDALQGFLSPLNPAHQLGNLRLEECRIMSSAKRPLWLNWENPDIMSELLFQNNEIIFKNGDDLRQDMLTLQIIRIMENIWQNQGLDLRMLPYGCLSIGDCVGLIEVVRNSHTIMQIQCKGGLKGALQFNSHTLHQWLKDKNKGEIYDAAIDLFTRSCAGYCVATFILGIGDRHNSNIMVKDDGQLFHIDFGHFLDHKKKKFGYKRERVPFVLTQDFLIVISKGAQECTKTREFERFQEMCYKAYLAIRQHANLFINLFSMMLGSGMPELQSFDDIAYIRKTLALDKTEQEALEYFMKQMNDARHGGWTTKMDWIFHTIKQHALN
Sequence of H1047R PIK3CA enzyme (P27986 whole entry partner): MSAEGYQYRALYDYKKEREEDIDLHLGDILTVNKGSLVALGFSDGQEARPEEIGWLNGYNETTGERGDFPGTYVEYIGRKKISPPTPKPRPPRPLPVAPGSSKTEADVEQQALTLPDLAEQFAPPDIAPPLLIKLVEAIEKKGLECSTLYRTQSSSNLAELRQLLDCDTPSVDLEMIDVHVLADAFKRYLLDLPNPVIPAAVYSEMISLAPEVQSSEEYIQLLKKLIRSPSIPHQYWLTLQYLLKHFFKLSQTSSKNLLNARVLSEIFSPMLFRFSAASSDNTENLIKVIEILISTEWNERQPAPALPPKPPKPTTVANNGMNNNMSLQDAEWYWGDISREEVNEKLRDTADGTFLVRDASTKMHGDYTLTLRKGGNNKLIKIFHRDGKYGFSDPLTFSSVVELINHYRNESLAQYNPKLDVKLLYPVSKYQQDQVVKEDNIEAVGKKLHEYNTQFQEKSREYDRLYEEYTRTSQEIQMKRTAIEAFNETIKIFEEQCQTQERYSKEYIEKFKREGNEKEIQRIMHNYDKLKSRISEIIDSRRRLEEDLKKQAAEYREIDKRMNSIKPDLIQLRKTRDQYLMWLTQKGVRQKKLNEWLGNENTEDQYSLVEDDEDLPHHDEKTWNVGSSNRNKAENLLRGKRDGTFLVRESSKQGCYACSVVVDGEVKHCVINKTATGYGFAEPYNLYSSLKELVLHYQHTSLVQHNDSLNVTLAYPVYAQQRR
In turn, `O=C1NC(c2cnccc2Cl)c2c(NC(=O)c3nsc4ccccc34)cccc21` (centres unmarked) [Compound I-160] displayed an IC50 of 500 to 1000 nM.
For `CC[C@H](CC(=O)Nc1cccc2c1[C@@H](c1cc(F)ccc1Cl)NC2=O)[C@@H](C)C(F)(F)F` (single isomer, unassigned) [Compound I-2338] the value was 10000 to 100000 nM.
For `O=C(Nc1cc(Cl)nc2c1[C@H](c1cc(F)ccc1Cl)NC2=O)c1cc(F)cc(C(F)(F)F)c1` [Compound I-616] the value was 100 to 500 nM.
To `Cn1cc(-c2cc(NC(=O)c3cc(F)cc(C(F)(F)F)c3)c3c(n2)C(=O)N[C@H]3c2cc(F)ccc2Cl)cn1` [Compound I-187] belongs at most 100 nM; to `CN1C[C@H](COc2cc(NC(=O)c3cc(F)cc(C(F)(F)F)c3)c3c(c2)C(=O)N[C@@H]3c2cc(F)ccc2Cl)CC1=O` (single isomer, unassigned) [Compound I-1521], at most 100 nM.
Consider `CN(C)S(=O)(=O)c1cc(-c2ccc3ncnn3c2)cc2c1C(c1cc(F)ccc1Cl)NC2=O` (centres unmarked) [Compound I-1968], for which the concentration for half-maximal inhibition (IC50) was 10000 to 100000 nM.
For `O=C(Nc1cc(Br)cc2c1C(c1cc(F)ccc1Cl)NC2=O)c1ccc(C(F)(F)F)s1` (centres unmarked) [Compound I-1427] the value was 1000 to 10000 nM.
For `O=C(Nc1cc(Br)cc2c1C(c1ccc(F)cc1Cl)NC2=O)c1cc(F)cc(C(F)(F)F)c1` (centres unmarked) [Compound I-756] the value was 100 to 500 nM; for `N#C[C@H]1CCN(C(=O)Nc2cc(-c3ccc4ncnn4c3)cc3c2C(c2cc(F)ccc2Cl)NC3=O)C1` (mixture of isomers) [Compound I-2415], 10000 to 100000 nM.
`O=C(Nc1cc(OC[C@H]2CCO2)cc2c1[C@H](c1cc(F)ccc1Cl)NC2=O)c1cc(F)cc(C(F)(F)F)c1` (single isomer, unassigned) [Compound I-1518] came in with an IC50 of at most 100 nM.
The compound `O=C1NC(c2ccccc2)c2c(NC(=O)c3csc4ccccc34)cccc21` (centres unmarked) [Compound I-8] registered an IC50 of 100 to 500 nM.
For `Cc1ccccc1C1NC(=O)c2cccc(-c3cc4c(F)cc(F)cc4[nH]3)c21` (centres unmarked) [Compound I-479] the value was 1000 to 10000 nM; for `CN1C[C@H](COc2cc(NC(=O)c3cc(F)cc(C(F)(F)F)c3)c3c(c2)C(=O)N[C@H]3c2cc(F)ccc2Cl)CC1=O` (single isomer, unassigned) [Compound I-1522], at most 100 nM; for `CC1(Cc2cc(NC(=O)c3cc(F)cc(C(F)(F)F)c3)c3c(c2)C(=O)N[C@H]3c2cc(F)ccc2Cl)COC1` [Compound I-818], at most 100 nM.
For `O=C1N[C@H](c2cc(F)ccc2Cl)c2c(NC(=O)c3csc4ccccc34)cc(Br)cc21` [Compound I-733] the value was 1000 to 10000 nM.
To `O=C(Nc1cc(Cc2ccc3nncn3c2)cc2c1C(c1cc(F)ccc1Cl)NC2=O)c1cc(F)cc(C(F)(F)F)c1` (centres unmarked) [Compound I-1528] belongs at most 100 nM; to `O=C1NC(c2cc(F)ccc2Cl)c2c(NC(=O)N3CCCC3)cc(-c3ccc4ncnn4c3)cc21` (centres unmarked) [Compound I-1720], 10000 to 100000 nM.
Compound `COc1ccc([C@H](C)N2C(=O)c3cc(Br)cc(N)c3[C@H]2c2cc(F)ccc2Cl)cc1` (racemic) [Compound I-862] returned an IC50 of 1000 to 10000 nM.
The compound `O=C(Nc1cc(-c2cn3ncnc3cn2)cc2c1[C@@H](c1cc(F)ccc1Cl)NC2=O)c1cc(F)cc(C(F)(F)F)c1` [Compound I-1440] had an IC50 of 1000 to 10000 nM.
To `O=C1NC(c2cc(F)ccc2Cl)c2c1cccc2-n1ccc2ccccc2c1=O` (centres unmarked) [Compound I-1590] belongs 10000 to 100000 nM; to `N#Cc1cncn1Cc1cc(NC(=O)c2cc(F)cc(C(F)(F)F)c2)c2c(c1)C(=O)N[C@@H]2c1cc(F)ccc1Cl` (stereo in doubt) [Compound I-1749], 100 to 500 nM; to `CNC(=O)Cc1cc(NC(=O)c2cc(F)cc(C(F)(F)F)c2)c2c(c1)C(=O)NC2c1cc(F)ccc1Cl` (centres unmarked) [Compound I-438], at most 100 nM.
For `CS(=O)(=O)Cc1cc(NC(=O)c2cc(F)cc(C(F)(F)F)c2)c2c(c1)C(=O)N[C@H]2c1cc(F)ccc1Cl` [Compound I-618] the value was at most 100 nM.

By IC50 is commonly meant the midpoint of a concentration-inhibition curve. A higher IC50 goes with weaker potency.
